Assay results from ChEMBL document CHEMBL5537156, “Discovery and Optimization of WDR5 Inhibitors via Cascade Deoxyribonucleic Acid-Encoded Library Selection Approach” (J Med Chem, 2024).

What was measured:
[1] = target: Histone-lysine N-methyltransferase 2A/WDR5 (Homo sapiens, UniProt P61964); test: Inhibition of MLL1/WDR5 (unknown origin) protein-protein interaction incubated for 60 mins by HTRF analysis; format: protein assay
MV4-11 = test: Antiproliferative activity against human MV4-11 cells harboring MLL-r assessed as cell growth inhibition incubated for 5 days by CCK-8 assay; format: functional, cell-based
K562 = test: Antiproliferative activity against human K562 cells assessed as cell growth inhibition incubated for 5 days by CCK-8 assay; format: functional, cell-based

SMILES | IC50 [1] | IC50 (MV4-11; Homo sapiens, MV4-11, 120 h) | IC50 (K562; Homo sapiens, K562, 120 h) | IC50 (MV4-11; mv4-11) | IC50 (K562; k562)
COc1cc(CN2CCc3c(cc(Cn4ccn(C)c4=N)cc3-c3ccc(F)cc3C)C2=O)cc(OC)c1 | 0.0068 µM | 0.17 µM | 3.6 µM |  | 
CNC(=O)[C@@H](Cc1ccc(Cl)cc1)NC(=O)c1cc(NCc2nc[nH]c2C)cc(-c2cc(CO)ccc2C)c1 | 0.0086 µM | 5 µM | 12.2 µM |  | 
Cc1[nH]cnc1CNc1cc(Br)cc(C(=O)NCCc2ccc(Cl)cc2)c1 | 0.221 µM |  |  |  | 
Cc1ccc(CO)cc1-c1cc(NCc2nc[nH]c2C)cc2c1CCN(CCc1ccc(Cl)cc1)C2=O | 0.0172 µM | 6.2 µM | 3.4 µM |  | 
Cc1[nH]cnc1CNc1cc(Br)cc(C(=O)N[C@H](Cc2ccc(Cl)cc2)C(=O)NC2CC2)c1 | 0.0324 µM |  |  |  | 
Cc1ccc(CO)cc1-c1cc(NCc2nc[nH]c2C)cc2c1CCN(Cc1ccc(Cl)cc1)C2=O | 0.0155 µM | 5.7 µM | 7.1 µM |  | 
CSc1cc(F)ccc1-c1cc(NCc2nc[nH]c2C)cc2c1CCN(Cc1ccc(Cl)cc1)C2=O | 0.0269 µM | 2.3 µM | 3.5 µM |  | 
Cc1[nH]cnc1CNc1cc(C(=O)N[C@H](Cc2ccc([N+](=O)[O-])cc2)C(=O)O)ccc1F | 0.239 µM |  |  |  | 
CNC(=O)[C@@H](Cc1ccc(Cl)cc1)NC(=O)c1cc(NCc2nc[nH]c2C)cc(-c2ccc(Cl)cc2C(F)(F)F)c1 | 0.0098 µM | 6.2 µM | 3.43 µM | 4.13 µM | 4.9 µM
COC(=O)[C@@H](Cc1ccc(Cl)cc1)NC(=O)c1cc(NCc2nc[nH]c2C)cc(-c2ccccc2SC)c1 |  | 3.9 µM | 3 µM |  | 
Cc1[nH]cnc1CNc1cc(C(=O)N[C@H](Cc2ccc(Cl)cc2)C(=O)O)ccc1F | 0.0846 µM |  |  |  | 
COC(=O)[C@@H](Cc1ccc(Cl)cc1)NC(=O)c1cc(NCc2nc[nH]c2C)cc(-c2cc(CO)ccc2C)c1 |  | 5.5 µM | 4.9 µM |  | 
CSc1ccccc1-c1cc(NCc2nc[nH]c2C)cc2c1CCCN(CCc1ccc(Cl)cc1)C2=O | 0.319 µM | 3.93 µM | 3.03 µM |  | 
CNC(=O)[C@@H](Cc1ccc(Cl)cc1)NC(=O)c1cc(Br)cc(NCc2nc[nH]c2C)c1 | 0.0252 µM |  |  |  | 
CNC(=O)[C@@H](Cc1ccc(Cl)cc1)NC(=O)c1cc(NCc2nc[nH]c2C)cc(-c2ccccc2C2CC2)c1 | 0.0188 µM |  |  |  | 
CSc1cc(F)ccc1-c1cc(NCc2nc[nH]c2C)cc2c1CCN(CCc1ccc(Cl)cc1)C2=O | 0.0395 µM | 3.5 µM | 4 µM |  | 
CNC(=O)[C@@H](Cc1ccc(Cl)cc1)NC(=O)c1cc(NCc2nc[nH]c2C)cc(-c2ccccc2SC)c1 | 0.0113 µM | 1.9 µM | 1.1 µM |  | 
CNC(=O)[C@@H](Cc1ccc(Cl)cc1)NC(=O)c1cc(NCc2nc[nH]c2C)cc(-c2ccc(C(C)(F)F)cc2)c1 | 0.149 µM |  |  |  | 
Cc1[nH]cnc1CNc1cc(Br)cc(C(=O)N[C@H](Cc2ccc(Cl)cc2)C(=O)O)c1 | 0.05 µM |  |  |  | 
Cc1[nH]cnc1CNc1cc2c(c(-c3ccc(Cl)cc3C(F)(F)F)c1)CCN(CCc1ccc(Cl)cc1)C2=O | 0.0758 µM | 4.8 µM | 5.2 µM |  | 
CSc1ccccc1-c1cc(NCc2nc[nH]c2C)cc2c1CCN(CCc1ccc(Cl)cc1)C2=O | 0.0416 µM | 4.8 µM | 4.7 µM |  | 
CSc1ccccc1-c1cc(NCc2nc[nH]c2C)cc2c1CCN(Cc1ccc(Cl)cc1)C2=O | 0.0405 µM | 3.4 µM | 4.9 µM |  | 
